Assays:
Assay type in all cases: cell-based
[1] = tested on: Zeocin treated recombinant bioluminescent E. coli HB101 assay reagent; experiment: ZnSO4 sensitivity assay, Zeocin treated assay reagent; conditions: for SENSITIVITY-EC50 VALUES, ZEOCIN TREATED: 15 minutes exposure to ZnSO4, % toxic effect on light output
Procedure: (§1) 1. Bioluminescent genetically modified E. coil strain HB101 (E. coli HB101 made bioluminescent by transformation with a plasmid carrying the lux operon of vibrio fischeri constructed by the method of Shaw and Kado, as described in Biotechnology 4: 560-564) was grown in fermenter as a batch culture in low salt medium (LB(5 g/ml NaCl)+glycerol+MgSO4).
(§2) 2. Two aliquots of the culture were removed from the fermenter into separate sterile shaker flasks at each of three different stages of growth i.e. at OD630 values of 0.038 (lag phase growth), 1.31 (mid-exponential phase growth) and 2.468 (stationary phase growth).
3. One aliquot of culture for each of the three growth stages was inactivated by contact with Zeocin™ (1 mg Zeocin™ added per 2.5×10^6 cells, i.e. the concentration of Zeocin™ per cell is kept constant) for 300 minutes and then processed into assay reagent by freeze drying and reconstitution, as described in part (B) of Example 1.
(§3) 5. Samples of each of the three Zeocin™ treated and three control assay reagents were then evaluated for sensitivity to toxicant (ZnSO4) according to the following assay protocol:
1. ZnSO4 solutions were prepared in pure water at 30, 10, 3, 1, 0.3 and 0.1 ppm. Pure water was also used as a control.
2. Seven vials of each of the three Zeocin™ treated and each of the three control assay reagents (i.e. one for each of the six ZnSO4 solutions and one for the pure water control) were reconstituted using 0.5 ml of reconstitution solution (eg 0.2M sucrose) and then left to stand at room temperature for 15 minutes to allow the light output to stabilize. Base line (time zero) readings of light output were then measured for each of the reconstituted reagents.
3. 0.5 ml aliquots of each of the six ZnSO4 solutions and the pure water control were added to separate vials of reconstituted assay reagent. This was repeated for each of the different Zeocin™ treated and control assay reagents.
(§4) 4. The vials were incubated at room temperature and light output readings were taken 5, 10, 15, 20, 25 and 30 minutes after addition of ZnSO4 solution.
5. The % toxic effect for each sample was calculated as follows: [formula]
where: Co=light in control at time zero
Ct=light in control at reading time
So=light in sample at time zero
(§5) St=light in sample at reading time

[2] = tested on: control (Zeocin untreated) recombinant bioluminescent E. coli HB101 assay reagent; experiment: ZnSO4 sensitivity assay, control assay reagent; conditions: 15 minutes exposure to ZnSO4, % toxic effect on light output
Procedure: as §1, §2
4. An equal volume of water was added to the second aliquot of culture for each of the three growth stages and the cultures processed into assay reagent as described above.
as §3
1. […]
2. […] Base line (time zero) readings of light output were then measured for each of the reconstituted reagents. […]
as §4
5. The % toxic effect for each sample was calculated as follows: [formula] […]
Ct=light in control at reading time […]
as §5

[3] = tested on: recombinant bioluminescent E. coli strain HB101; experiment: Inactivation of bioluminescent E. coli: viable count time course; conditions: 1.5 mg/ml Zeocin; exponential growth phase culture
Procedure: (§6) 1. Bioluminescent genetically modified E. coil strain HB101 (E. coli HB101 made bioluminescent by transformation with a plasmid carrying the lux operon of Vibrio fischeri constructed by the method of Shaw and Kado, as described in Biotechnology 4: 560-564) were grown from a frozen stock in 5 ml of low salt medium (LB (5 g/ml NaCl)+glycerol+MgSO4) for 24 hours.
(§7) 2. 1 ml of the 5 ml culture was then used to inoculate 200 ml of low salt medium in a shaker flask and the resultant culture grown to an OD630 of 0.407 (exponential growth phase).
(§8) 3. 50 ml of this culture was removed to a fresh sterile shaker flask (control cells).
4. Zeocin™ was added to the 150 ml of culture in the original shaker flash, to a final concentration of 1.5 mg/ml. […]
5. The time course of cell inactivation was monitored by removing samples from the culture at 5, 60, 120, 180, 240 and 300 minutes after the addition of Zeocin™ and taking measurements of both light output (measured using a Deltatox luminometer) and viable count (per ml, determined using the method given in Example 3 below) for each of the samples. […]
5. The number of bacterial colonies present for each of the three aliquots at each of the serial dilutions were counted and the values averaged. Viable count was calculated per ml of bacterial culture.

[4] = tested on: recombinant bioluminescent E. coli strain HB101; experiment: Light output of culture during Zeocin treatment (Deltatox luminometer); conditions: 1.5 mg/ml Zeocin; 5 to 300 minutes
Procedure: as §6, §7, §8
4. Zeocin™ was added to the 150 ml of culture in the original shaker flash, to a final concentration of 1.5 mg/ml. At the same time, an equivalent volume of water was added to the 50 ml culture removed from the original flask (control cells).
5. The time course of cell inactivation was monitored by removing samples from the culture at 5, 60, 120, 180, 240 and 300 minutes after the addition of Zeocin™ and taking measurements of both light output (measured using a Deltatox luminometer) and viable count (per ml, determined using the method given in Example 3 below) for each of the samples. Samples of the control cells were removed at 5 and 300 minutes after the addition of water and measurements of light output and viable count taken as for the Zeocin™ treated cells.

[5] = tested on: recombinant bioluminescent E. coli strain HB101; experiment: Light output of reconstituted freeze dried assay reagent; conditions: cells exposed to 1.5 mg/ml Zeocin for 5 hours, reconstituted in 0.2M sucrose
Procedure: Five hours after the addition of Zeocin™ or water the remaining bacterial cells in the Zeocin™ treated and control cultures were harvested by the centrifugation, washed (to remove traces of Zeocin™ from the Zeocin™ treated culture), re-centrifuged and resuspended in cryoprotectant to an OD630 of 0.25. 200 μl aliquots of the cells in cryoprotectant were dispensed into single shot vials, and freeze dried. Freeze dried samples of the Zeocin™ treated cells and control cells were reconstituted in 0.2M sucrose to form assay reagents and the light output of the assay reagents measured at various times after reconstitution.

SMILES | SENSITIVITY-EC50 VALUES, ZEOCIN TREATED ([1]; Expotential phase assay reagent) | SENSITIVITY-EC50 VALUES, ZEOCIN TREATED ([1]; Lag Phase assay reagent) | SENSITIVITY-EC50 VALUES, ZEOCIN TREATED ([1]; Stationary phase assay reagent) | SENSITIVITY-EC50 VALUES, CONTROL CELLS ([2]; Lag Phase assay reagent) | SENSITIVITY-EC50 VALUES, CONTROL CELLS ([2]; Stationary phase assay reagent) | contact time for complete inactivation of the culture (viable count) [3] | light output from the culture with Zeocin contact time [4] | light output of reconstituted assay reagent versus control (Zeocin untreated) cells [5] | effect of Zeocin treatment on sensitivity of assay reagent to ZnSO4 ([1]; 1 mg Zeocin per 2.5×10^6 cells for 300 minutes, three growth stages, versus control reagents)
O=S(=O)([O-])[O-].[Zn+2] [ZnSO4] | 0.446 ppm ZnSO4 | 1.445 ppm ZnSO4 | 0.426 ppm ZnSO4 | 1.580 ppm ZnSO4 | 0.457 ppm ZnSO4 | – | – | – | –
Cc1c(N)nc([C@H](CC(N)=O)NC[C@H](N)C(N)=O)nc1C(=O)N[C@H](C(=O)N[C@H](C)[C@@H](O)[C@H](C)C(=O)N[C@H](C(=O)NCCC1=N[C@@H](c2nc(C(=O)NCCCCN=C(N)N)cs2)CS1)[C@@H](C)O)[C@@H](O[C@@H]1O[C@@H](CO)[C@@H](O)[C@H](O)[C@@H]1O[C@H]1O[C@H](CO)[C@@H](O)[C@H](OC(N)=O)[C@@H]1O)c1cnc[nH]1 [Zeocin™, phleomycin D1] | – | – | – | – | – | 3 h | decrease gradually | not significantly different | does not significantly affect
